Patent US10543250B2, “Antimicrobial fusion peptides” (Los Angeles Biomedical Research Institute at Harbor-UCLA …, priority 2015, dated 2020)
“Also recorded” adds a separate entry of the source.

Key:
[1] = test system: MDRAB clinical isolate HUMC-1; assay: Neutropenic murine model of MDRAB pneumonia; format: in vivo, Acinetobacter baumannii; settings: for survival: neutropenic mice, aerosolized MDRAB HUMC-1, treatment for 3d, survival monitored to day 21, peptide 12.5 mg/kg IV qd, imipenem 15 mg/kg IP bid
Experimental: Neutropenic mice (cortisone acetate [250 mg/kg; subQ]+cyclophosphamide [200 mg/kg; IP] on study days-2, +3, and +8) were infected on day 0 (aerosolized; MDRAB clinical isolate HUMC-1; 5×10^8 CFU; lung Cx-positive). Treatment initiated 4 hr or 24 hr post-infection and continued for 3d. Groups:control (PBS); imipenem (15 mg/kg; IP; bid); γ-RP-1 (12.5 mg/kg; IV; qd); γ-RP-1 (12.5 mg/kg; IV; qd). Survival was then monitored to day 21. At end point or 21d, lungs and spleens were cultured. Outcomes were compared by non-parametric analysis. All studies adhered to institutional and AAALAC animal care policies.

[2] = test system: MDRAB; assay: Biomatrix assay: efficacy in human blood, plasma or serum; format: cell-based, Acinetobacter baumannii; settings: human blood ex vivo
Experimental: Efficacies of RP-1 and γ-RP-1 in human blood, plasma, or serum were assessed. Peptide was added to biomatrix simultaneously with MDRAB (final inoculum 10^5 CFU/ml; peptide range […]; volume 100 μl). Controls were performed using Mueller Hinton broth (MHB; CLSI). Following incubation (constant agitation; 2 h, 37° C.), survival was quantified by culture (n=3) upon blood agar and defined as CFU/ml. Independent minimum, n=2.

[3] = test system: wide panel of Gram-negative human pathogens; assay: Efficacy against panel of Gram-negative human pathogens at pH 5.5 and 7.5 (Example 4); format: cell-based; settings: compared to any other peptide tested
Experimental: The efficacy of RP-1 and γ-RP-1, along with a number of peptide variants and suitable control, was tested against a wide panel of Gram-negative human pathogens.

[4] = test system: 3D7 P. falciparum; assay: In vitro antimalarial activity; format: cell-based; settings: at 12.5 mg/ml after incubation for 96 hour
[5] = test system: P. berghei ANKA luciferase; assay: In vivo antimalarial efficacy in infected mice; settings: 12.5 mg/kg, IV treatment daily for 5 days, compared to chloroquine at the same concentration
From the text: FIGS. 15 and 16 show the in vivo antimalarial activity of γ-RP-1 on Luciferase-expressing P. berghei ANKA (FIG. 15: single dose; FIG. 16: double dose). CQ: chloroquine.

[6] = test system: wide panel of human pathogens; assay: Efficacy of γ-RP-1 variants against panel of human pathogens at pH 5.5 and 7.5 (Example 6); format: cell-based; settings: pH 5.5 and 7.5, FIG. 16A-B
Experimental: The efficacy of RP-1 and γ-RP-1, along with a number of peptide variants and suitable control, was tested against a wide panel of human pathogens.
In another experiments, the following peptides were tested.

[7] = Peptide pI; format: physicochemical
Experimental: Antimicrobial agents: RP-1 (pI/Mw: 10.82/2162.78 Da) is an 18-amino synthetic peptide derived from PF-4 family kinocidins. γ-RP-1 (pI/Mw: 10.64/4444.5 Da) is a 39-amino synthetic peptide comprising a CXCL4 kinocidin γ-core motif-RP-1 construct. Stock peptides dissolved in sterile ddH2O were diluted in suitable buffers. Antibiotics were purchased as purified powder and re-suspended in PBS per the manufacturer guidelines.

Compound | Total MDRAB burden (CFU) in lungs and spleens, reduction ([1]; as compared to control or imipenem treatments alone) | efficacy vs. MDRAB in a murine model of neutropenic pneumonia ([1]; in vivo) | survival [1] | efficacy in human blood [2] | efficacy against individual organisms and across the broader panel [3] | in vitro antimalarial effects, dose-response curve [4] | antimalarial activity in vivo [5] | efficacy compared with RP-1 across bacterial species [6] | pI [7]
γ-RP-1 (CPTAQLIATLKNGRKICLDLQALYKKFKKKLLKSLKRLG) | > 2 log CFU | significant efficacy | 72% | significant efficacy; also recorded: greater efficacy | overall best efficacy | excellent IC50 curve | moderate antimalarial activity | higher efficacy than RP-1 | 10.64
C[C@@H](O)[C@H]1C(=O)N2C(C(=O)O)=C(SCCN=CN)C[C@H]12 [imipenem, reference compound] | – | – | 16% | – | – | – | – | – | –
